Assay results reported in US5789447A, “Nitric oxide releasing compounds as protective agents in ischemia reperfusion injury” (priority 1995, dated 1998).
Entries after “also recorded” stand apart in the source; their conditions may differ.

What was measured:
neuronal cell death = settings: Lafon-Cazal et al.; cited from earlier work
NMDA receptor = settings: U.S. Pat. No. 5,234,956; cited from earlier work
[1] = Saran et al. 1990; cited from earlier work
[2] = Kanner et al.; cited from earlier work
[3] = system: Primary neuronal cell cultures; settings: as high as 1 mM; cited from earlier work
[4] = system: endothelial cell monolayers; settings: Radomski et al.; cited from earlier work
[5] = system: Leukocyte-endothelial cell adhesive interactions; settings: postcapillary venules; Kubes et al. 1991; cited from earlier work
platelet aggregation = settings: Rubanyi et al.; cited from earlier work
lung tissue = settings: high concentrations in the gas phase; cited from earlier work
[6] = system: ventral mesencephalic cells; test: [3H]dopamine uptake after hydrogen peroxide or HX/XO exposure; format: cell-based, Sprague Dawley rats
Description: (§1) The ventral tegmental mesencephalon was dissected from 14 day old embryos (precisely timed pregnant Sprague Dawley rats; Zivic-Miller, Allison Park, Pa.) under sterile conditions and mechanically dissociated into complete culture medium. The culture medium consisted of a 1:1 mixture of modified minimum essential medium and nutrient mixture F-12 supplemented with 6 mg/ml D-gluose, 2 mM glutamine, 0.5 U/ml penicillin G, 0.5 mg/ml streptomycin (all from Gibco, Grand Island, N.Y.) and 15% equine serum (Hyclone, Logan, Utah). Cells were plated into multiwell plates that were previously coated with poly-D-lysine (15 μg/ml) and laminin (10 μg/ml) at a density of 40,000 cells/cm^2 (Costar). The cells were maintained for 5-7 days at 37° C. in an atmosphere of 95% air and 5% CO2 saturated with H2 O. On the fifth day of culture 1 μM cytosine-β-D-arabinofuranoside was added to inhibit glial cell growth.
Uptake of dopanine by dopaminergic neurons was assayed as follows. The cells in each well were washed three times with 1 ml PBS containing 6 mg/ml glucose and thereafter Dulbecco's modified essential medium (Quality Biological, Inc., Farmingham, Mass.) containing 6 mg/ml D-glucose, 50 μM ascorbic acid, and 5×10^-8 M [^3 H]dopamine (NEN, Boston, Mass.; specific activity of […]) was added and incubated for 15 min at 37° C. [^3 H]dopamine uptake was stopped by aspirating the incubation solution and washing the cells three times with ice-cold PBS containing 6 mg/ml D-glucose. The cells were removed by washing the wells with an equal volume of 0.2N NaOH and 0.2N HCl containing 0.02% Triton X-100. The residual intracellular radioactivity in the cells was determined by scintillation spectroscopy.
Accordingly, ventral mesencephalic cell cultures were exposed to 100 μM H2 O2 for 1 hr in the presence and absence of 100 μM DEA/NO and evaluated for their ability to take up dopamine.
In a separate study, cells were cultured for 7 days and then exposed to 50 or 100 μM hydrogen peroxide for 60 min or to 0.04 units/ml HX/XO for 5 or 10 min in the absence or presence of 100 μM DEA/NO. The cells were washed with PBS containing 6 g/l D-glucose, culture medium was added, and the cells were incubated for 18 hr. The ability of the cells (6 wells of 450,000 cells/well per group) to take up ^3 [H]-dopamine was measured. These cells were exposed to ten times less hydrogen peroxide or HX/XO than the V79 cells described above.

[7] = system: Chinese hamster V79 lung fibroblasts; test: V79 clonogenic survival, hypoxanthine/xanthine oxidase (HX/XO) cytotoxicity
Description: Chinese hamster V79 lung fibroblasts were cultured in F12 medium supplemented with 10% fetal calf serum and antibiotics. Cell survival was assessed by clonogenic assay with 85-95% plating efficiency. Stock cultures of exponentially growing cells were trypsinized, rinsed, and plated (7×10^5 cells/dish) into a number of 100 cm^2 petri dishes and incubated 16 hr at 37° C. prior to experimental protocols.
It has been shown that exposure of V79 cells to hydrogen peroxide results in dose-dependent cytotoxicity (Mitchell et al., supra).
HX and XO were purchased from Boehringer Co. (Indianapolis, Ind.). Nitrite, diethylamine, sulfinamide, diethylenetriaminepentaacetic acid (DETAPAC) and N-(1-naphthyl)ethylenediaminedihydrogenchloride (NEDD) were purchased from Aldrich (Milwaukee, Wis.). Cytosine-β-D-arabinofuranoside and ferricytochrome c were purchased from Sigma (St. Louis, Mo.). DEA/NO and SPER/NO were synthesized as previously described (Maragos et al., (1991), supra).
Exponentially growing cultures of Chinese hamster V79 fibroblasts were exposed to either HX/XO (final concentration of HX was 0.5 mM; 0.08 units/ml XO were used) for various amounts of time (FIG. 1A) or to various concentrations of hydrogen peroxide for one hour (FIG. 1B). […] Additionally, 1 mM DEA/NO was added to medium in the absence of cells, incubated at 37° C. for 1 hr or 16 hrs, and then added just prior to the addition of hydrogen peroxide to evaluate the effects of DEA/NO which had released NO. After treatment, cell monolayers were rinsed twice with phosphate-buffered saline (PBS), trypsinized, counted and plated in triplicate for macroscopic colony formation. Each dose determination was plated in triplicate and experiments were repeated a minimum of two times. Plates were incubated for 7 days, after which colonies were fixed with methanol/acetic acid (3:1), stained with crystal violet, and counted. Colonies containing more than 50 cells were scored.

[8] = system: Chinese hamster V79 lung fibroblasts; test: V79 clonogenic survival, hydrogen peroxide cytotoxicity; format: cell-based
Excerpt: Colonies containing more than 50 cells were scored.

mesencephalic neurons = test: Morphology of mesencephalic neurons (neurites and somas); format: cell-based, Sprague Dawley rats
Description: as §1
When cells were exposed to hydrogen peroxide for 1 hr, varicosities formed in the neurites and somas swelled. Exposure to HX/XO for as short as 5 min elicited similar morphological changes in mesencephalic neurons.

[9] = Chemical controls: DEA/NO or NO with hydrogen peroxide; format: physicochemical; settings: presence of 1 mM hydrogen peroxide
Description: Anaerobic solutions of 1 mM hydrogen peroxide in 10 mM phosphate buffer, pH 7.4, were mixed with 1 mM NO. […] The rate of decomposition of DEA/NO was unaffected by the presence of 1 mM hydrogen peroxide; likewise, hydrogen peroxide was not consumed by DEA/NO or intermediates of the DEA/NO decomposition reaction as measured by the production of I3^- (Hochanadel, J. Phys. Chem., 56, 587-594 (1952)).

XO [10] = molecular target: T1, XO (Bos taurus, UniProt P80457); test: XO activity by superoxide-induced reduction of ferricytochrome c; format: biochemical
T1 sequence (P80457 whole entry): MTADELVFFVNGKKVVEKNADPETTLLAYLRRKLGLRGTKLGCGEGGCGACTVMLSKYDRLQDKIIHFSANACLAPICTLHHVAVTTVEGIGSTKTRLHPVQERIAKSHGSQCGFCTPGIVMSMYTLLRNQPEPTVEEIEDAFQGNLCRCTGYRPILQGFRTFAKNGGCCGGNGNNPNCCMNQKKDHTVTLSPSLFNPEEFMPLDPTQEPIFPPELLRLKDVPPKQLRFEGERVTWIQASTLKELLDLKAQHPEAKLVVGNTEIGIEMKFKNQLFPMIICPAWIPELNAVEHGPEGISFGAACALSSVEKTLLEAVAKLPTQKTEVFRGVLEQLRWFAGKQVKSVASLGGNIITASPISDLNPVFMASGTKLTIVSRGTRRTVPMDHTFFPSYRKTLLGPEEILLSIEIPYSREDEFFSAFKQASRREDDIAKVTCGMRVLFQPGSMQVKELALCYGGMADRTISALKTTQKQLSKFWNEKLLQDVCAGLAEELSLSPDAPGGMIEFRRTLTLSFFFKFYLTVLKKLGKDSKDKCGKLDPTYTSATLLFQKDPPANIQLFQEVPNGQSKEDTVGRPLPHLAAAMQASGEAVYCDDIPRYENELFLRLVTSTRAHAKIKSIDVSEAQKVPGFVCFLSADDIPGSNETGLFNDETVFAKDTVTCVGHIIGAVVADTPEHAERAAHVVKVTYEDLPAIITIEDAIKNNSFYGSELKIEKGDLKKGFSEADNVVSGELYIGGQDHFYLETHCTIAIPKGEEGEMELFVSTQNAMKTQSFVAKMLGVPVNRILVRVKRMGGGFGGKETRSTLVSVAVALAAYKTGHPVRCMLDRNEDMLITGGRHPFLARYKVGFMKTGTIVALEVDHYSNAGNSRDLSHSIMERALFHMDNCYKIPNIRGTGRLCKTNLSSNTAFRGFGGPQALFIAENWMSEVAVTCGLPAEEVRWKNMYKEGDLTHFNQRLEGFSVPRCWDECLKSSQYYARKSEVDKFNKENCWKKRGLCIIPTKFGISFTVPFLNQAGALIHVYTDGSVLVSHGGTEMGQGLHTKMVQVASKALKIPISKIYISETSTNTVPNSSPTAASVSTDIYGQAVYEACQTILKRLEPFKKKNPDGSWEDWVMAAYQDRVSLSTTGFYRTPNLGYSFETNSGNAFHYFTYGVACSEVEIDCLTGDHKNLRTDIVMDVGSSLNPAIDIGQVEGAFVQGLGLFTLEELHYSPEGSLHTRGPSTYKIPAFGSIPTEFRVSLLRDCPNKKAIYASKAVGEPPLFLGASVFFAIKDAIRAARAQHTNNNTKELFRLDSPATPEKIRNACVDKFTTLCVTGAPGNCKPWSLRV
Description: (§2) The activity of XO was monitored in the absence and presence of 1 mM DEA/NO by two different assays. Superoxide-induced reduction of ferricytochrome c to ferrocytochrome c was monitored spectrophotometrically at 550 nm (Fridovich, Handbook of Method for Oxygen Radical Research, pages 213-215 (1985)). The reaction was carried out in a 1 ml volume in aerated phosphate buffer (pH 7.8, 50 mM) containing 50 μM DETAPAC. HX was maintained at 2.5 mM and ferricytochrome c at 20 μM. The reactions were initiated with the addition of XO (final concentration of 0.2 units/ml). The activity of XO in the absence and presence of 1 mM DEA/NO was directly monitored by measuring the production of uric acid spectrophotometrically at 305 nm for 10 min under the same conditions but in the absence of ferricytochrome c. All enzymatic assays and chemical reactions were done at 37° C.

XO [11] = molecular target: T1, XO; test: XO activity by uric acid production at 305 nm; format: biochemical
Description: as §2

[12] = 100 μM with hydrogen peroxide or HX/XO

CC1(C)CCC=[N+]1[O-] [DMPO]
reduction of neuronal cell death (neuronal cell death): more efficiently than the nitric oxide synthase inhibitor L-N-nitroarginine

O=[N+]([O-])OCC(CO[N+](=O)[O-])O[N+](=O)[O-] [nitroglycerin]
NMDA receptor-mediated neuronal damage (NMDA receptor): reduce NMDA receptor-mediated neuronal damage

nitric oxide [NO]
reaction rate constant for NO and O2 [1]: 5.6×10^7 M^-1 S^-1 | quenching of Fenton-type oxidation [2]: could quench Fenton-type oxidation | adverse effects in primary neuronal cell cultures [3]: no adverse effects | platelet adhesion to endothelial cell monolayers [4]: reduce platelet adhesion to endothelial cell monolayers | leukocyte-endothelial cell adhesive interactions [5]: inhibited | platelet aggregation (platelet aggregation): block platelet aggregation | lung tissue damage (lung tissue): damages lung tissue

CCN(CC)/[N+]([O-])=N/[O-].[Na+] [DEA/NO]
[3H] Dopamine Uptake ([6]; 100 μM DEA/NO with 50 μM H2O2, 60 min): 2.8 ± 0.11 pmol/well/15 min | [3H] Dopamine Uptake ([6]; 100 μM DEA/NO with 100 μM H2O2, 60 min): 2.6 ± 0.22 pmol/well/15 min | [3H] Dopamine Uptake ([6]; 100 μM DEA/NO with 0.04 U/ml HX/XO, 5 min): 2.6 ± 0.15 pmol/well/15 min | [3H] Dopamine Uptake ([6]; 100 μM DEA/NO with 0.04 U/ml HX/XO, 10 min): 2.3 ± 0.10 pmol/well/15 min | [3H] Dopamine Uptake ([6]; 100 μM DEA/NO, no addition (None)): 2.7 ± 0.11 pmol/well/15 min | protection of dopamine uptake [6, 12]: complete protection | retained function (dopamine uptake) ([6]; hydrogen peroxide in presence of DEA/NO (100 μM, 1 hr), FIG. 3): ~100% | protection against HX/XO-induced cell killing ([7]; 0.1 mM): marginal protection | protection against HX/XO-induced cell killing ([7]; 1 mM): significantly protected against cell killing | protection against hydrogen peroxide cytotoxicity ([8]; 1 mM, added just prior to hydrogen peroxide, 1 hr exposure): nearly complete protection | protection against hydrogen peroxide cytotoxicity ([8]; 1 mM, allowed to release NO for 1 hr prior to hydrogen peroxide): only modest protection | effect on hydrogen peroxide cytotoxicity ([8]; 1 mM, incubated 16 hr in medium prior to hydrogen peroxide): enhanced the cytotoxicity of hydrogen peroxide | effect of treatment after hydrogen peroxide ([8]; 1 hr hydrogen peroxide followed by 1 hr treatment with 1 mM): did not treat oxygen free radical mediated tissue damage | morphological changes (mesencephalic neurons; 100 μM alone, 1 hr): failed to cause morphological changes | abnormalities in the neurites and somas (mesencephalic neurons; [12]): did not demonstrate abnormalities in the neurites and somas | rate of decomposition / rate of formation of NO [9]: not altered; also recorded: unaffected | inhibition of XO activity, production of superoxide (cytochrome c reduction) (XO [10]; 1 mM, preincubated with HX/XO): did not inhibit the activity of XO | SOD sensitive ferricytochrome c reduction (XO [10]; presence of DEA/NO): quenching; also recorded: inhibited | inhibition of XO activity, uric acid production (XO [11]; 1 mM, preincubated with HX/XO): did not inhibit the activity of XO | uric acid production (UV 305 nm) / XO substrate turnover (XO [11]; presence of DEA/NO): not inhibited; also recorded: nor affect XO substrate turnover
